Reference: ChEMBL document CHEMBL2157926, “Peptoid ligands that bind selectively to phosphoproteins” (Bioorg Med Chem Lett, 2011)
The source made the active and inactive calls. The rule behind the calls is not given here. Non-standard residues stand in square brackets, D forms with d. Residues, ends and D or L forms follow the SMILES beside them. Gly(N-(CH2)3N-pyrrolidone) = O=C(O)CNCCCN1CCCC1=O; N(4-hydroxyphenethyl)Gly = O=C(O)CNCCc1ccc(O)cc1; NFurfurylGly = O=C(O)CNCc1ccco1; Nleu = CC(C)CNCC(=O)O; Nlys = NCCCCNCC(=O)O; Nme = COCCNCC(=O)O

Tests used:
[1] = target: T1, Bromodomain-containing protein 4 (Homo sapiens, UniProt O60885); experiment: Binding affinity to modified phosphorylated human BRD4 phosphorylation-dependent interaction domain (598-785) expressed in Sf9 cells assessed as red fluorescence by SDS-PAGE method based one-bead binding assay
[2] = target: T1, Bromodomain-containing protein 4; experiment: Binding affinity to modified phosphorylated human BRD4 phosphorylation-dependent interaction domain (598-785) using fluorescein 5-maleimide by fluorescence polarization method
[3] = target: T1, Bromodomain-containing protein 4; experiment: Binding affinity to Flag tagged phosphorylated human BRD4 phosphorylation-dependent interaction domain (287-530) assessed as formation of cross-linking products at 0.1 uM in presence of sodium periodate using Neutravedin HRP by SDS-PAGE method
[4] = target: T1, Bromodomain-containing protein 4; experiment: Binding affinity to modified phosphorylated human BRD4 phosphorylation-dependent interaction domain (287-530) expressed in Sf9 cells assessed as formation of cross-linking products in presence of sodium periodate using Neutravedin HRP by Western blot method
[5] = target: T1, Bromodomain-containing protein 4; experiment: Binding affinity to Flag tagged phosphorylated human BRD4 phosphorylation-dependent interaction domain (287-530) assessed as formation of cross-linking products at 0.5 uM in presence of sodium periodate using Neutravedin HRP by SDS-PAGE method
[6] = target: T1, Bromodomain-containing protein 4; experiment: Binding affinity to modified phosphorylated human BRD4 phosphorylation-dependent interaction domain (287-530) expressed in Sf9 cells assessed as formation of cross-linking products in absence of sodium periodate using Neutravedin HRP by Western blot method
[7] = target: T1, Bromodomain-containing protein 4; experiment: Binding affinity to Flag tagged phosphorylated human BRD4 phosphorylation-dependent interaction domain (287-530) assessed as formation of cross-linking products at 0.5 uM in absence of sodium periodate using Neutravedin HRP by SDS-PAGE method

SMILES	Activity [1]	Kd [2]	Activity [3]	Activity [4]	Activity [5]	Activity [6]	Activity [7]
COCCN(CC(=O)N(CCCCN)CC(=O)N(CCCCN)CC(N)=O)C(=O)CN(CCCCN)C(=O)CN(CCc1ccc(O)cc1)C(=O)CNCC(C)C (H-[Nleu][N(4-hydroxyphenethyl)Gly][Nlys][Nme][Nlys][Nlys]-NH2)	inactive	50 µM	–	–	–	–	–
COCCN(CC(=O)N(CCCCN)CC(=O)N(CCCCN)CC(=O)NC(Cc1ccc(O)c(O)c1)C(=O)N[C@H](CCC(=O)NCCCOCCOCCOCCCNC(=O)CCCC[C@@H]1SC[C@@H]2NC(=O)N[C@@H]21)C(N)=O)C(=O)CN(CCCCN)C(=O)CN(CCc1ccc(O)cc1)C(=O)CNCC(C)C (stereo partly drawn)	–	–	inactive	Active	Active	inactive	inactive
CC(C)CN(CC(=O)N(CCCCN)CC(=O)N(CC(=O)N(CCCCN)CC(=O)N(CCCCN)CC(N)=O)Cc1ccco1)C(=O)CNCCCN1CCCC1=O (H-[Gly(N-(CH2)3N-pyrrolidone)][Nleu][Nlys][NFurfurylGly][Nlys][Nlys]-NH2)	Active	–	–	–	–	–	–
